# Test results reported in patent US20150376198A1, “MODULATORS OF VASOPRESSIN RECEPTORS WITH THERAPEUTIC POTENTIAL” (priority 2013, published 2015).
# pIC50: −log10 of the molar value. Where two headings read alike, the source gives them in different places.
# Molecular target: human Arginine Vasopressin Receptor 1a (AVPR1a) (Homo sapiens, UniProt P37288)
# Experiment: cell-based
# Chain of human Arginine Vasopressin Receptor 1a (AVPR1a) (P37288 whole entry): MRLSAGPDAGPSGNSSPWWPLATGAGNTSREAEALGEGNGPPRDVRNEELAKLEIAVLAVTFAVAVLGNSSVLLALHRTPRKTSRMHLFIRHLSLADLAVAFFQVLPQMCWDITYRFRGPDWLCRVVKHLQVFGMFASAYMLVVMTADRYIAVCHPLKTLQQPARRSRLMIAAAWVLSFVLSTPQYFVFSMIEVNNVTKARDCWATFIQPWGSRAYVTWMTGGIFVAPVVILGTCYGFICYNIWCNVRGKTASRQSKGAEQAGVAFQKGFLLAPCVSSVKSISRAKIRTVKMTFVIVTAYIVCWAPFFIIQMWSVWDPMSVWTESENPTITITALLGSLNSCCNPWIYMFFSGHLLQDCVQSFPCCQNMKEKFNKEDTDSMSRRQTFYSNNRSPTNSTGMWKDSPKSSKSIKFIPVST
Compound,pIC50 (read-out: V1a-R IC50),pIC50
CCC(CC)C(=O)N1CCC(C(=O)N2CCCCc3cc(Cl)ccc32)CC1 [Compound 79],5.27,–
Cc1noc(C)c1C(=O)N1CCC(C(=O)N2CCCCc3cc(Cl)ccc32)CC1 [Compound 80],4.82,–
O=C(C1CCN(C(=O)C23CC4CC(CC(C4)C2)C3)CC1)N1CCCCc2cc(Cl)ccc21 [Compound 81],5.09,–
CC(C)(C)C(=O)N1CCC(C(=O)N2CCCCc3cc(Cl)ccc32)CC1 [Compound 82],5.60,–
O=C(c1ccccc1)N1CCC(C(=O)N2CCCCc3cc(Cl)ccc32)CC1 [Compound 83],5.74,–
O=C(c1ccccc1F)N1CCC(C(=O)N2CCCCc3cc(Cl)ccc32)CC1 [Compound 84],5.83,–
COc1ccc(C(=O)N2CCC(C(=O)N3CCCCc4cc(Cl)ccc43)CC2)cc1 [Compound 85],5.75,–
O=C(c1ccc(Cl)cc1)N1CCC(C(=O)N2CCCCc3cc(Cl)ccc32)CC1 [Compound 86],6.08,–
O=C(c1ccc(C(F)(F)F)cc1)N1CCC(C(=O)N2CCCCc3cc(Cl)ccc32)CC1 [Compound 87],5.73,–
O=C(c1cccc(C(F)(F)F)c1)N1CCC(C(=O)N2CCCCc3cc(Cl)ccc32)CC1 [Compound 88],6.23,–
O=C(c1ccc(Cl)cc1Cl)N1CCC(C(=O)N2CCCCc3cc(Cl)ccc32)CC1 [Compound 89],5.75,–
O=C(c1ccc(F)c(F)c1)N1CCC(C(=O)N2CCCCc3cc(Cl)ccc32)CC1 [Compound 90],5.82,–
O=C(c1cccc(F)c1F)N1CCC(C(=O)N2CCCCc3cc(Cl)ccc32)CC1 [Compound 91],5.73,–
O=C(c1c(F)cccc1F)N1CCC(C(=O)N2CCCCc3cc(Cl)ccc32)CC1 [Compound 92],5.77,–
O=C(c1ccncc1)N1CCC(C(=O)N2CCCCc3cc(Cl)ccc32)CC1 [Compound 93],5.24,–
O=C(C1CCN(c2ccccn2)CC1)N1CCCCc2cc(Cl)ccc21 [Compound 109],8.30,–
O=C(C1CCN(c2ncccn2)CC1)N1CCCCc2cc(Cl)ccc21 [Compound 110],6.68,–
N#Cc1cccnc1N1CCC(C(=O)N2CCCCc3cc(Cl)ccc32)CC1 [Compound 111],6.89,–
N#Cc1ccc(N2CCC(C(=O)N3CCCCc4cc(Cl)ccc43)CC2)nc1 [Compound 112],5.91,–
N#Cc1ccc(C(=O)N2CCC(C(=O)N3CCCCc4cc(Cl)ccc43)CC2)cc1 [Compound 113],5.24,–
N#Cc1ccc(C(=O)N2CCC(C(=O)N3CCCCc4cc(Cl)ccc43)CC2)c(F)c1 [Compound 114],5.02,–

Compound,pIC50 (read-out: V1a-R IC50),pIC50
N#Cc1cc(C(=O)N2CCC(C(=O)N3CCCCc4cc(Cl)ccc43)CC2)ccc1F [Compound 115],5.28,–
O=C(c1cc(F)cc(F)c1)N1CCC(C(=O)N2CCCCc3cc(Cl)ccc32)CC1 [Compound 116],5.80,–
Cc1cncc(C(=O)N2CCC(C(=O)N3CCCCc4cc(Cl)ccc43)CC2)c1 [Compound 117],5.94,–
CS(=O)(=O)c1ccc(C(=O)N2CCC(C(=O)N3CCCCc4cc(Cl)ccc43)CC2)cc1 [Compound 118],4.89,–
O=C(c1csc2ccccc12)N1CCC(C(=O)N2CCCCc3cc(Cl)ccc32)CC1 [Compound 119],6.21,–
O=C(c1c[nH]c2ccccc12)N1CCC(C(=O)N2CCCCc3cc(Cl)ccc32)CC1 [Compound 120],6.60,–
O=C(c1cc2ccccc2[nH]1)N1CCC(C(=O)N2CCCCc3cc(Cl)ccc32)CC1 [Compound 121],6.35,–
O=C(N1CCN(c2ccccn2)CC1)N1CCCCc2cc(Cl)ccc21 [Compound 122],7.10,–
O=C(N1CCN(c2ncccn2)CC1)N1CCCCc2cc(Cl)ccc21 [Compound 123],6.59,–
Cc1cccnc1N1CCN(C(=O)N2CCCCc3cc(Cl)ccc32)CC1 [Compound 124],7.40,–
O=C(N1CCN(c2ncccc2Cl)CC1)N1CCCCc2cc(Cl)ccc21 [Compound 125],7.24,–
O=C(N1CCN(c2ncccc2C(F)(F)F)CC1)N1CCCCc2cc(Cl)ccc21 [Compound 126],7.27,–
O=C(N1CCN(c2nccs2)CC1)N1CCCCc2cc(Cl)ccc21 [Compound 127],6.57,–
O=C(N1CCN(c2ccccc2)CC1)N1CCCCc2cc(Cl)ccc21 [Compound 128],7.57,–
O=C(N1CCN(c2cc(Cl)cc(Cl)c2)CC1)N1CCCCc2cc(Cl)ccc21 [Compound 129],6.69,–
Cc1ccc(Cl)cc1N1CCN(C(=O)N2CCCCc3cc(Cl)ccc32)CC1 [Compound 130],6.55,–
O=C(N1CCC(c2ccccc2)CC1)N1CCCCc2cc(Cl)ccc21 [Compound 131],7.08,–
O=C(N1CCN(c2ccc(C(F)(F)F)cc2)CC1)N1CCCCc2cc(Cl)ccc21 [Compound 132],7.54,–
O=C(N1CCC(O)(c2ccccc2)CC1)N1CCCCc2cc(Cl)ccc21 [Compound 133],6.86,–
N#CC1(c2ccccc2)CCN(C(=O)N2CCCCc3cc(Cl)ccc32)CC1 [Compound 134],–,6.45
O=C(N1CCN(c2ccccc2Cl)CC1)N1CCCCc2cc(Cl)ccc21 [Compound 139],7.46,–

Compound,pIC50 (read-out: V1a-R IC50),pIC50
O=C(C1CCN(c2ncccc2F)CC1)N(CC1CC1)c1ccc(Cl)cc1 [Compound 140],–,7.82
O=C(C1CCN(c2ccc(Cl)cn2)CC1)N(CC1CC1)c1ccc(Cl)cc1 [Compound 141],–,7.40
N#Cc1cccnc1N1CCC(C(=O)N(CC2CC2)c2ccc(Cl)cc2)CC1 [Compound 142],7.17,–
O=C(C1CCN(c2ncccc2C(F)(F)F)CC1)N(CC1CC1)c1ccc(Cl)cc1 [Compound 143],7.08,–
O=C(C1CCN(c2ncccc2Cl)CC1)N(CC1CC1)c1ccc(Cl)cc1 [Compound 144],7.64,–
O=C(C1CCN(c2ccc(C(F)(F)F)cn2)CC1)N(CC1CC1)c1ccc(Cl)cc1 [Compound 145],6.91,–
O=C(C1CCN(c2ccc(F)cn2)CC1)N(CC1CC1)c1ccc(Cl)cc1 [Compound 146],–,7.62
Cc1cccnc1N1CCC(C(=O)N(CC2CC2)c2ccc(Cl)cc2)CC1 [Compound 147],8.15,–
Cc1ccnc(N2CCC(C(=O)N(CC3CC3)c3ccc(Cl)cc3)CC2)c1 [Compound 148],8.52,–
Cc1ccc(N2CCC(C(=O)N(CC3CC3)c3ccc(Cl)cc3)CC2)nc1 [Compound 149],–,7.70
Cc1cccc(N2CCC(C(=O)N(CC3CC3)c3ccc(Cl)cc3)CC2)n1 [Compound 150],7.64,–
Cc1cc(C)nc(N2CCC(C(=O)N(CC3CC3)c3ccc(Cl)cc3)CC2)n1 [Compound 151],8.10,–
O=C(C1CCN(c2cnccn2)CC1)N(CC1CC1)c1ccc(Cl)cc1 [Compound 152],7.35,–
N#Cc1ccc(N2CCC(C(=O)N(CC3CC3)c3ccc(Cl)cc3)CC2)nc1 [Compound 153],6.10,–
O=C(C1CCN(c2ccccn2)CC1)N(CC1CC1)c1ccc(Cl)cc1 [Compound 154],7.82,–
O=C(N1CCN(c2ncc(F)cn2)CC1)N(CC1CC1)c1ccc(Cl)cc1 [Compound 155],6.97,–
Cc1cnc(N2CCN(C(=O)N(CC3CC3)c3ccc(Cl)cc3)CC2)nc1 [Compound 156],7.77,–
O=C(N1CCN(c2ncc(Cl)cn2)CC1)N(CC1CC1)c1ccc(Cl)cc1 [Compound 157],6.69,–
Cc1cc(C)nc(N2CCN(C(=O)N(CC3CC3)c3ccc(Cl)cc3)CC2)n1 [Compound 158],7.62,–
N#Cc1cccnc1N1CCN(C(=O)N(CC2CC2)c2ccc(Cl)cc2)CC1 [Compound 159],7.09,–
